In patent US8030336B2, “Nicotinamide-based kinase inhibitors” (YM Biosciences Australia Pty Ltd, priority 2002, dated 2011):

How the values were obtained:
Format in all cases: biochemical
abl = target: T1, abl (Homo sapiens, UniProt P00519); experiment: abl kinase assay (ELISA or Alphascreen); conditions: read-out: abl inhibition of enzyme activity
T1 sequence (P00519 242-493 limits assumed): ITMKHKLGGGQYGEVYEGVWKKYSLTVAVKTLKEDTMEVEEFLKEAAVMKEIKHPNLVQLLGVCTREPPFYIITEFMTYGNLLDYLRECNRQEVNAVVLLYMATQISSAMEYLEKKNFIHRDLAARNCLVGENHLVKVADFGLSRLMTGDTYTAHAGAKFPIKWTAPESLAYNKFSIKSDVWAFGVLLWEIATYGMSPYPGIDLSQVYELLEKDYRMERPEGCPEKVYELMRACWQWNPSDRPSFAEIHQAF
How it was run: (§1)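 Affinity-purified PTK domain (~1.5 μg) phosphorylated biotinylated peptide (5 μM final) in 50 mM HEPES pH 7.5, 10 mM MgCl2, 150 mM NaCl, 10 μM-1 mM ATP. Phosphotyrosine read by PY20 ELISA or Alphascreen.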

hck = hck (Homo sapiens, UniProt P08631); experiment: hck kinase assay (ELISA or Alphascreen); conditions: read-out: hck inhibition of enzyme activity
hck, sequence (P08631 262-515 limits assumed, species assumed): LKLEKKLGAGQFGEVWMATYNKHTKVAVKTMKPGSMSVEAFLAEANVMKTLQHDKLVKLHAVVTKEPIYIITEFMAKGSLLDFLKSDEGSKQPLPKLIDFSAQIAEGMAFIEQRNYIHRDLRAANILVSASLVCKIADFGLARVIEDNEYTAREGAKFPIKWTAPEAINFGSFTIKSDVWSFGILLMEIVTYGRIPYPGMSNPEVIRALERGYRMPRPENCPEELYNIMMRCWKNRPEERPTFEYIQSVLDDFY
How it was run: as §1

human JAK3 = target: T2, human JAK3 (Homo sapiens, UniProt P52333); experiment: JAK3 kinase assay (ELISA or Alphascreen); conditions: read-out: Jak3 inhibition of enzyme activity
T2 construct: The kinase domain of human JAK3 was amplified from U937mRNA; His tag (from the pFastBac HTb vector) (N); made in house; host or cells: baculovirus; Sf9 for virus, High Five insect cells for production
T2 sequence (P52333 822-1111 limits assumed): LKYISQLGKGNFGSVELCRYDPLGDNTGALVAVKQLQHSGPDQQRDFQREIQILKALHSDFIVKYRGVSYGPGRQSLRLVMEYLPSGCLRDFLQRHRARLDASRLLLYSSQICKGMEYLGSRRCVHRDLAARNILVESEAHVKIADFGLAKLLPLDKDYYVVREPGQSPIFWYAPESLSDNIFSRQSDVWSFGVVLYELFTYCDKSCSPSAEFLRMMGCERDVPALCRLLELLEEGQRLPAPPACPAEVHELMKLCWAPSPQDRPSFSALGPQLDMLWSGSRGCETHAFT
How it was run: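 His-tagged human JAK3 kinase domain from High Five cells, ~1.5 μg per assay, in 50 mM HEPES pH 7.5, 10 mM MgCl2, 150 mM NaCl, 10 μM-1 mM ATP, 5 μM biotinylated peptide substrate. Phosphotyrosine by PY20 ELISA or Alphascreen.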

Zap70 = target: T3, Zap70 (Homo sapiens, UniProt P43403); experiment: Zap70 kinase assay (ELISA or Alphascreen); conditions: read-out: Zap70 inhibition of enzyme activity
T3 sequence (P43403 338-600 limits assumed): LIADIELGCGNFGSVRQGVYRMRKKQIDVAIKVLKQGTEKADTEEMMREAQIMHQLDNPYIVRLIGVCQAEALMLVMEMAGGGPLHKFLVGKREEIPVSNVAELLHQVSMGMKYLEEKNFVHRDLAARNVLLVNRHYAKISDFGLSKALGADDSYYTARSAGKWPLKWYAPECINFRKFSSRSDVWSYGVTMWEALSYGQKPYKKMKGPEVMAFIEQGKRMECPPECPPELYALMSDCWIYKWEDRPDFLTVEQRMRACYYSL
How it was run: as §1

fms = target: T4, fms (Homo sapiens, UniProt P07333); experiment: fms kinase assay (ELISA or Alphascreen); conditions: read-out: fms inhibition of enzyme activity
T4 sequence (P07333 582-910 limits assumed): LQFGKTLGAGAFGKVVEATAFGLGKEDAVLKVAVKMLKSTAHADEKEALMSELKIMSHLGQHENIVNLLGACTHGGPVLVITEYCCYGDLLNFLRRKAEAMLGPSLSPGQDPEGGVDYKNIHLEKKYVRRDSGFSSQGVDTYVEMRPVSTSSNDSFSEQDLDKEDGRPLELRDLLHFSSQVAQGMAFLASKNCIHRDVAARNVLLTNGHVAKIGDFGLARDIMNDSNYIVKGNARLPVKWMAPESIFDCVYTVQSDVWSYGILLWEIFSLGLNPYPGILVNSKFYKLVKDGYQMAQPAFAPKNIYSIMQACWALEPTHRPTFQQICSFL
How it was run: as §1

human JAK2 = target: T5, human JAK2 (Homo sapiens, UniProt O60674); experiment: JAK2 kinase assay (ELISA or Alphascreen); conditions: read-out: Jak2 inhibition of enzyme activity
T5 construct: The kinase domain of human JAK2 was amplified from U937mRNA; His tag (from the pFastBac HTc vector) (N); made in house; host or cells: baculovirus; Sf9 for virus, High Five insect cells for production
T5 sequence (O60674 849-1124 limits assumed): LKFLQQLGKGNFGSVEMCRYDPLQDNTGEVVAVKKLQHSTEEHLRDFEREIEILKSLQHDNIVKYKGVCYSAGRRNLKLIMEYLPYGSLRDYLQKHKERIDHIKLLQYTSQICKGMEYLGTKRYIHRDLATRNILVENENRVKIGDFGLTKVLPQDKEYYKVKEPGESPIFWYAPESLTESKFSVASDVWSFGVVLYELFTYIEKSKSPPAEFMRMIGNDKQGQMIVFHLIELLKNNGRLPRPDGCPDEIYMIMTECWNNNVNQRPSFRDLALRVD
How it was run: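 His-tagged human JAK2 kinase domain from baculovirus-infected insect cells, ~1.5 μg per assay, in 50 mM HEPES pH 7.5, 10 mM MgCl2, 150 mM NaCl, with 10 μM–1 mM ATP and 5 μM biotinylated peptide substrate. Phosphotyrosine detected by PY20 ELISA or AlphaScreen.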

fes = fes (Homo sapiens, UniProt P07332); experiment: fes kinase assay (ELISA or Alphascreen); conditions: read-out: fes inhibition of enzyme activity
fes, sequence (P07332 561-822 limits assumed, species assumed): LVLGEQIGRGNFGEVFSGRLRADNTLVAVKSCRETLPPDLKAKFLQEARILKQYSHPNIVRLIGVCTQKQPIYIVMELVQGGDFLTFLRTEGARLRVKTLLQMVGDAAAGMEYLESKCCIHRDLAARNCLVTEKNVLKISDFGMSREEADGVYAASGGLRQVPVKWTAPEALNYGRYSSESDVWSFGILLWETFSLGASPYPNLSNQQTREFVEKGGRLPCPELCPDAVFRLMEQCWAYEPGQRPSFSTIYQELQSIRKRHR
How it was run: as §1

| inhibition at 10 µM (abl) [%] | inhibition at 10 µM (hck) [%] | inhibition at 10 µM (human JAK3) [%] | inhibition at 10 µM (Zap70) [%] | inhibition at 10 µM (fms) [%] | inhibition at 10 µM (human JAK2) [%] | inhibition at 10 µM (fes) [%] | Compound |
| --- | --- | --- | --- | --- | --- | --- | --- |
| < 50 | < 50 | < 50 | < 50 | ≥ 50 | < 50 | ≥ 50 | CC(C)NC(=O)c1cncc(-c2cccs2)c1 |
| < 50 | < 50 | < 50 | ≥ 50 | < 50 | < 50 | < 50 | Cc1cc(-c2cncc(C(=O)NC(C)C)c2)cc(C)c1O |
| < 50 | ≥ 50 | < 50 | < 50 | ≥ 50 | < 50 | < 50 | Cc1ccc(F)cc1NC(=O)c1cncc(-c2cccs2)c1 |

Second part, the compound before the results:

| Compound | inhibition at 10 µM (abl) [%] | inhibition at 10 µM (hck) [%] | inhibition at 10 µM (human JAK3) [%] | inhibition at 10 µM (Zap70) [%] | inhibition at 10 µM (fms) [%] | inhibition at 10 µM (human JAK2) [%] | inhibition at 10 µM (fes) [%] |
| --- | --- | --- | --- | --- | --- | --- | --- |
| COc1cccc(-c2cncc(C(=O)NCCc3ccccc3)c2)c1 | < 50 | < 50 | < 50 | ≥ 50 | < 50 | < 50 | < 50 |
| O=C(Nc1ccc(N2CCOCC2)cc1)c1cncc(-c2cccs2)c1 | < 50 | < 50 | < 50 | < 50 | < 50 | < 50 | ≥ 50 |
| COc1cccc([C@H](C)NC(=O)c2cncc(-c3ccc(F)cc3)c2)c1 | < 50 | < 50 | < 50 | ≥ 50 | < 50 | < 50 | < 50 |
| CN(Cc1ccccc1)C(=O)c1cncc(-c2cccs2)c1 | < 50 | < 50 | < 50 | < 50 | < 50 | < 50 | ≥ 50 |
